Results as given in patent US20260234165A1, “MACROCYCLIC COMPOUNDS, PREPARATION METHOD THEREFOR, AND USE THEREOF” (GENFLEET THERAPEUTICS (SHANGHAI) INC., priority 2004, published 2026).
Where two headings read alike, the source gives them in different places.

Assays:
Assay type in all cases: cell-based, human
[1] = system: p-ERK in NCI-H441 cells (KRAS G12V mutation); experiment: Cell p-ERK assay (HTRF) in NCI-H441 cells; details: NCI-H441 cells, 3 h compound incubation, HTRF p-ERK T202/Y204, read-out: H441 p-ERK IC50
Procedure, shortened: (§1)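 Phospho-ERK inhibition measured by HTRF after a 3 h compound exposure (0.1% DMSO) in overnight-seeded cells; IC50 derived from dose-response fitting.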

[2] = system: p-ERK in AsPC-1 cells (KRAS G12D mutation); experiment: Cell p-ERK assay (HTRF) in AsPC-1 cells; details: AsPC-1 cells, 3 h compound incubation, HTRF p-ERK T202/Y204, read-out: AsPC-1 p-ERK IC50
Procedure, shortened: as §1

[3] = system: AsPC-1 cells (KRAS G12D mutation); experiment: 3D cell proliferation assay (CellTiter Glo-3D), AsPC-1; details: medium with 2% FBS, read-out: AsPC-1 AP IC50
Procedure, shortened: (§2)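 Cells were seeded at 800 per well in RPMI-1640 containing 2% FBS and left overnight. Compounds in 3.16-fold dilution series were then added at 0.1% DMSO and incubated 5 days at 37 °C. Viability was read by CellTiter-Glo 3D luminescence and IC50 values fitted by four-parameter regression.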

[4] = system: NCI-H441 cells; experiment: 3D cell proliferation assay (CellTiter Glo-3D), NCI-H441; details: medium with 2% FBS, read-out: H441 AP IC50
Procedure, shortened: as §2

[5] = Homo sapiens, ASPC1, 3D cell proliferation (CellTiter Glo-3D)
[6] = Homo sapiens, NCI-H441, 3D cell proliferation (CellTiter Glo-3D)
[7] = 3D cell proliferation (CellTiter Glo-3D)

SMILES | IC50 ([1]; Homo sapiens, NCI-H441, 3 h) | IC50 ([2]; Homo sapiens, ASPC1, 3 h) | IC50 [3, 5] | IC50 [4, 6] | IC50 [1] | IC50 [2] | IC50 [3, 7] | IC50 [4, 7]
CCn1c(-c2cc(OCC34CCCN3CCC4)cnc2[C@H](C)OC)c2c3cc(ccc31)-c1csc(n1)C[C@H](NC(=O)[C@H]1[C@H](C)[C@@H]1C)C(=O)N1CCC[C@H](N1)C(=O)OCC1(CC1)C2 (single isomer, unassigned) [Compound Z339] | 5.48 nM | 10.8 nM | 18.3 nM | 7.33 nM |  |  |  | 
CCn1c(-c2cc(N3CCN4CCOC[C@@H]4C3)cnc2[C@H](C)OC)c2c3cc(ccc31)-c1csc(n1)C[C@H](NC(=O)[C@H]1[C@H](C)[C@@H]1C)C(=O)N1CCC[C@H](N1)C(=O)OCC(C)(C)C2 (atropisomer, axis not shown; (Ra)) [Compound Z73, (1r,2R,3S)—N-((6^3S,4S,Z)-1^1-ethyl-(Ra)-1^2-(5-((S)-hexahydropyrazino[2,1-c][1,4]oxazin-8(1H)-yl)-2-((S)-1-(methoxy-d3)ethyl)pyridin-3-yl)-10,10-dimethyl-5,7-dioxo-6^1,6^2,6^3,6^4,6^5,6^6-hexahydro-1^1H-8-oxa-2(4,2)-thiazola-1(5,3)-indola-6(1,3)-pyridazinacycloundecaphane-4-yl)-2,3-dimethylcyclopropane-1-carboxamide] |  |  |  |  | 0.24 nM | 0.21 nM | 0.65 nM | 0.35 nM
CCn1c(-c2cc(N3CCN(C)CC3)cnc2[C@H](C)OC)c2c3cc(ccc31)-c1csc(n1)C[C@H](Nc1nnc3ccc(C)cn13)C(=O)N1CCC[C@H](N1)C(=O)OCC(C)(C)C2 (atropisomer, axis not shown; (Ra)) [Compound Z434, (6^3S,4S,Z)-1^1-ethyl-(Ra)-1^2-(2-((S)-1-methoxyethyl)-5-(4-methylpiperazin-1-yl)pyridin-3-yl)-10,10-dimethyl-4-((6-methyl-[1,2,4]triazolo[4,3-a]pyridin-3-yl)amino)-6^1,6^2,6^3,6^4,6^5,6^6-hexahydro-1^1H-8-oxa-2(4,2)-thiazola-1(5,3)-indola-6(1,3)-pyridazinacycloundecaphane-5,7-dione] | 17.5 nM | 69.4 nM | 104 nM | 18.1 nM |  |  |  | 
CCc1ccn2c(N[C@H]3Cc4nc(cs4)-c4ccc5c(c4)c(c(-c4cc(N6CCN(C)CC6)cnc4[C@H](C)OC)n5CC)CC(C)(C)COC(=O)[C@@H]4CCCN(N4)C3=O)nnc2c1 (atropisomer, axis not shown; (Ra)) [Compound Z662, (6^3S,4S,Z)-1^1-ethyl-4-((7-ethyl-[1,2,4]triazolo[4,3-a]pyridin-3-yl)amino)-(Ra)-1^2-(2-((S)-1-methoxyethyl)-5-(4-methylpiperazin-yl)pyridin-3-yl)-10,10-dimethyl-6^1,6^2,6^3,6^4,6^5,6^6-hexahydro-1^1H-8-oxa-2(4,2)-thiazola-1(5,3)-indola-6(1,3)-pyridazinacycloundecaphane-5,7-dione] | 5.4 nM | 34.4 nM | 67 nM | 11 nM |  |  |  | 
CCn1c(-c2cc(C#CCN3CCC(N=S(C)(C)=O)CC3)cnc2[C@H](C)OC)c2c3cc(ccc31)-c1csc(n1)C[C@H](NC(=O)[C@H]1[C@H](C)[C@@H]1C)C(=O)N1CCC[C@H](N1)C(=O)OCC(C)(C)C2 [Compound Z1045] | 0.19 nM | 0.36 nM | 0.21 nM | 0.17 nM |  |  |  | 

The remaining lines, values ahead:

IC50 ([1]; Homo sapiens, NCI-H441, 3 h) | IC50 ([2]; Homo sapiens, ASPC1, 3 h) | IC50 [3, 5] | IC50 [4, 6] | IC50 [1] | IC50 [2] | IC50 [3, 7] | IC50 [4, 7] | SMILES
0.29 nM | 0.35 nM | 0.53 nM | 0.2 nM |  |  |  |  | CO[C@@H](C)c1ncc(OCCN2CCS(=O)(=O)CC2)cc1-c1c2c3cc(ccc3n1CC(F)(F)F)-c1csc(n1)C[C@H](NC(=O)[C@H]1C[C@@H]1C)C(=O)N1CCC[C@H](N1)C(=O)OCC(C)(C)C2 (atropisomer, axis not shown; (Ra)) [Compound Z677, (1S,2S)—N-((6^3S,4S,Z)—(Ra)-1^2-(5-(2-(1,1-dioxidothiomorpholino)ethoxy)-2-((S)-1-methoxyethyl)pyridin-3-yl)-10,10-dimethyl-5,7-dioxo-1^1-(2,2,2-trifluoroethyl)-6^1,6^2,6^3,6^4,6^5,6^6-hexahydro-1^1H-8-oxa-2(4,2)-thiazola-1(5,3)-indola-6(1,3)-pyridazinacycloundecaphane-4-yl)-2-methylcyclopropane-1-carboxamide]
 |  |  |  | 5.56 nM | 20.7 nM | 16.3 nM | 7.66 nM | CCn1c(-c2cc(OCCN3CCOCC34CC4)cnc2[C@H](C)OC)c2c3cc(ccc31)-c1csc(n1)C[C@H](NC(=O)[C@H]1C[C@@H]1C(F)F)C(=O)N1CCC[C@H](N1)C(=O)OCC1(CC1)C2 (relative stereo) [Compound Z557, (1S,2S)—N-((3′S,4′S,Z)—(Ra)-2′-(5-(2-(7-oxa-4-azaspiro[2,5]octan-4-yl)ethoxy)-2-((S)-1-methoxyethyl)pyridin-3-yl)-1′-ethyl-5′,7′-dioxospiro[cyclopropane-1,10′-8-oxa-2(4,2)-thiazola-1(5,3)-indola-6(1,3)-pyridazinacycloundecaphan]-4′-yl)-2-trans-(difluoromethyl)cyclopropane-1-carboxamide]
 |  |  |  | 2.79 nM | 7.39 nM | 5.52 nM | 6.04 nM | CCn1c(-c2cc(C#CCN3CC(F)C3)cnc2[C@H](C)OC)c2c3cc(ccc31)-c1csc(n1)C[C@H](NC(=O)[C@H]1[C@H](C)[C@@H]1C)C(=O)N1CCC[C@H](N1)C(=O)OCC(C)(C)C2 (atropisomer, axis not shown; (Ra)) [Compound Z383-1, (1r,2R,3S)—N-((6^3S,4S,Z)—(Ra)-1^2-(5-(3-(3-fluoroazetidin-1-yl)prop-1-yn-1-yl)-2-((S)-1-methoxyethyl)pyridin-3-yl)-1^1-ethyl-10,10-dimethyl-5,7-dioxo-6^1,6^2,6^3,6^4,6^5,6^6-hexahydro-1^1H-8-oxa-2(4,2)-thiazola-1(5,3)-indola-6(1,3)-pyridazinacycloundecaphane-4-yl)-2,3-dimethylcyclopropane-1-carboxamide]
 |  |  |  | 0.29 nM | 0.33 nM | 0.2 nM | 0.28 nM | C=C1CN(CC#Cc2cnc([C@H](C)OC)c(-c3c4c5cc(ccc5n3CC)-c3csc(n3)C[C@H](NC(=O)[C@H]3[C@H](C)[C@@H]3C)C(=O)N3CCC[C@H](N3)C(=O)OCC(C)(C)C4)c2)C1 [Compound Z1034, (1 r,2R,3S)—N-((6^3S,4S,Z)-1^1-ethyl-1^2-(2-((S)-1-methoxyethyl)-5-(3-(3-methyleneazetidine-1-yl)prop-1-Sn-1-yl)pyridin-3-yl)-10,10-dimethyl-5,7-dioxo-6^1,6^2,6^3,6^4,6^5,6^6-hexahydro-1^1H-8-oxa-2(4.2)-thiazola-1(5,3)-indola-6(1.3)-pyridazinacycloundecaphane-4-yl)-2,3-dimethylcyclopropane-1-carboxamide]
0.8 nM | 0.66 nM | 0.83 nM | 0.53 nM |  |  |  |  | CCn1c(-c2cc(OC[C@H]3CCCN3Cc3ccn(C)n3)cnc2[C@H](C)OC)c2c3cc(ccc31)-c1csc(n1)C[C@H](NC(=O)[C@H]1[C@H](C)[C@@H]1C)C(=O)N1CCC[C@H](N1)C(=O)OCC(C)(C)C2 (atropisomer, axis not shown; (Ra)) [Compound Z784-2, (1r,2R,3S)—N-((6^3S,4S,Z)—(Ra)-1^2-5-(((R)-1-((1-methyl-1H-pyrazol-3-yl)methyl)pyrrolidin-2-yl)methoxy)-(2-((S)-1-methoxyethyl)-pyridin-3-yl)-10,10-dimethyl-5,7-dioxo-6^1,6^2,6^3,6^4,6^5,6^6-hexahydro-1^1H-8-oxa-2(4,2)-thiazola-1(5,3)-indola-6(1.3)-pyridazinacycloundecaphane-4-yl)-2,3-dimethylcyclopropane-1-carboxamide]
0.23 nM | 0.09 nM | 0.11 nM | 0.15 nM |  |  |  |  | CCn1c(-c2cc(OCC3(N4CCS(=O)(=O)CC4)CC3)cnc2[C@H](C)OC)c2c3cc(ccc31)-c1csc(n1)C[C@H](NC(=O)[C@H]1[C@H](C)[C@@H]1C)C(=O)N1CCC[C@H](N1)C(=O)OCC(C)(C)C2 (atropisomer, axis not shown; (Ra)) [Compound Z614, (1r,2R,3S)—N-((6^3S,4S,Z)-1^2-(5-((1-(1,1-dioxidothiomorpholino)cyclopropyl)methoxy)-2-((S)-1-methoxyethyl)pyridin-3-yl)-1^1-ethyl-(Ra)-10,10-dimethyl-5,7-dioxo-6^1,6^2,6^3,6^4,6^5,6^6-hexahydro-1^1hydrogen-8-oxa-2(4,2)-thiazola-1(5,3)-indola-6(1,3)-pyridazinacycloundecaphane-4-yl)-2,3-dimethylcyclopropane-1-carboxamide]
